Data: US20260048155A1, “BIOCOMPATIBLE PARAHYDROGEN HYPERPOLARIZED SOLUTIONS BY PRECIPITATION AND RE-DISSOLUTION” (North Carolina State University, priority 2022, published 2026)

Experiment: Titration study of sodium pyruvate solubility / precipitation from methanol by added solvent
Type: physicochemical
Procedure: Precipitating and filtering of pyruvate from solutions using thermally polarized natural-abundance sodium pyruvate: Considering the finding of low pyruvate solubility herein, ethanol was an obvious first choice as the precipitating solvent. […] Other candidates (acetone, 1-propanol, and ethyl acetate) were tested next. All three solvents mixed with methanol and dissolved 6 mM of SABRE catalyst well. […] For each of the three solvents (FIG. 11) eight 500-μL batches of methanol containing different concentrations of pyruvate were prepared (cpyr∈[80, 60, 40, 30, 20, 8, 4, 2] mM). Then, 9.5 mL of the respective precipitating solvent were added to each sample. In all 80 mM samples, prominent and almost instantaneous precipitation was observed as the solutions lost transparency and became milky. For 1-propanol, acetone, and ethyl acetate, precipitation was visible for all mixtures with 40 mM, 20 mM, and 4 mM or more initial concentration of pyruvate, respectively. Additionally, as ethyl acetate and water are immiscible, a later purification of this solvent was expected to be advantageous (see below). Based on these observations, the rest of the study was continued with acetone and ethyl acetate.

CC(=O)C(=O)[O-].[Na+] [sodium pyruvate]
precipitation on ethanol addition (9-fold volume of ethanol added to 80 mM in methanol): no precipitation was detected
initial pyruvate concentration in methanol at which precipitation was visible (500 μL methanol + 9.5 mL 1-propanol): ≥ 40 mM
initial pyruvate concentration in methanol at which precipitation was visible (500 μL methanol + 9.5 mL acetone): ≥ 20 mM
initial pyruvate concentration in methanol at which precipitation was visible (500 μL methanol + 9.5 mL ethyl acetate): ≥ 4 mM
